Experimental data from a melting point compilation (Tetko et al.; mined from patent text by program, amines drawn as free bases though some values may be those of a salt).

melting point	SMILES
82 to 83 °C	CN1CCC(=C2c3ccccc3Oc3ccc(C(F)(F)F)cc32)CC1
205 to 208 °C	CN1CC(=O)N(c2cc(Cc3n[nH]c(=O)c4ccccc34)ccc2F)C(=O)C1
145 °C	O=C1c2ccccc2C(=O)c2c1cccc2N1CCC(O)CC1
253 to 255 °C	N#CNC(=S)Nc1ccccc1Cl
134 °C	COc1ccc(C(=O)C2(C)CCC(C(=O)O)C2(C)C)c(OC)c1 (stereo not given)
178 to 181 °C	CN(C)c1ccc(-c2cc3ccccc3o2)cc1
152 to 154 °C	COc1cccc(OC)c1C=CC(=O)C=Cc1c(OC)cccc1OC
117 to 122 °C	CC(C)N1CCN(S(=O)(=O)c2cccc(NC(=O)Nc3ccc(C(F)(F)F)cc3)c2)CC1
202 to 204 °C	Cc1ccc(C(=O)NC(NC(=S)Nc2ccc(F)cc2F)C(F)(F)F)cc1 (stereo not given)
178 to 179 °C	N#Cc1ccc(-c2ccc(N3CC(CI)CC3=O)cc2)cc1 (stereo not given)
140 to 142 °C	Brc1cccc(C#Cc2ccncc2)c1
117 to 118 °C	CCOc1nn(-c2ccc(C(F)(F)F)cn2)cc1CCCOc1nn(-c2ccccc2)cc1CC(=O)O
163 to 167 °C	CN1C(=O)C2C3C=CC(C3)C2(c2ccc([N+](=O)[O-])cc2)C1=O (stereo not given)
120 to 124 °C	CC(C)(C)OC(=O)NCCCCO/N=C(\C(=O)O)c1csc(NC(c2ccccc2)(c2ccccc2)c2ccccc2)n1
156 to 158 °C	NC(=O)CN1Cc2ccccc2CCC1=O
203 to 205 °C	COc1ccc(C(=O)Nc2ccc(F)cc2)cc1NC(=S)Nc1ccc(C(=O)O)cc1
111 to 113 °C	CCN(CC)C(=O)Cc1cc(C(C)(C)C)c(O)c(C(C)(C)C)c1

melting point	SMILES
141 °C	CCOc1cc2c(cc1OCC)C1CN(C)CCC1N=C2c1ccc(C#N)cc1 (single isomer, unassigned; (-))
144 °C	CC(C)(C)OC(=O)N[C@H]1CC[C@@H](NC(=O)OC(C)(C)C)CC1
140 to 142 °C	COC(=O)C1=C(C)Nc2ccccc2SC1c1cccc([N+](=O)[O-])c1 (stereo not given)
226 to 228 °C	Cc1cc(-c2c[nH]c(N)n2)ccn1
109 to 110 °C	CCOP(=O)(OCC)C1(P(=O)(OCC)OCC)CC(C(=O)C(C)c2ccc(-c3ccccc3)c(F)c2)=NN1 (stereo not given)
75 to 76 °C	CCOC(=O)C1=Cc2ccc(OCc3ccccc3)cc2OCC1
227 to 228 °C	CCOc1cc2c(=O)cc(C(=O)O)n(CC)c2ccc1=O
153 to 154 °C	Cc1ccc(CN(Cc2ccc(C)cc2)c2nccc(-c3ccc(-c4ccc(N(c5ccccc5)c5ccccc5)cc4)cc3)n2)cc1
58 to 59 °C	CCCC1(C(=O)O)CCCCC1
194 to 195 °C	COc1ccc(-c2ccc3ccccc3c2C(=O)N(C)C)cc1
186 to 188 °C	CCn1cc(C(=O)O)c(=O)c2cc(F)c(N3CCNC(c4ccc(C)o4)C3)cc21 (stereo not given)
191 to 194 °C	Cn1c2ccccc2c2nc3c(CO)cccc3nc21
203 to 205 °C	Cc1nc2cc3c(cc2c(=O)n1COC(=O)C(C)(C)C)C(=O)CC3
295 to 298 °C	O=S1(=O)N=C(NC2CCCC2)Nc2cc(F)ccc21
125 °C	COCCOc1ccc2c(C(C[N+](=O)[O-])c3cccc(NC(=O)OCc4ccccc4)c3C)c[nH]c2c1 (stereo not given)
67 to 68 °C	CCCCN(CCCC)S(=O)(=O)c1ccc(Cl)c([N+](=O)[O-])c1
124 to 126 °C	CCCn1c(=O)c2[nH]c(CC(C)c3ccc(OCc4ccccc4)cc3)nc2n(CCC)c1=O (stereo not given)

SMILES	melting point
Cn1nnc2c(N3CCNCC3)ncnc21	95 to 96 °C
CCCNCC(O)c1cccc(F)c1 (stereo not given)	46 to 47.3 °C
Nc1cccc(P(=O)(O)O)c1	300 °C
O=C1NCCC1Cc1ccccc1 (stereo not given)	112 to 113 °C
COc1cccc(C2(C=O)CCNCC2)c1OC	123 °C
NNC(=O)C1(Cl)CC1(Cl)Cl (stereo not given)	122 to 123 °C
